The record followed here is PubChem BioAssay (NCI).

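Tested at 5 concentrations; 48 h exposure; 96-well plates; endpoints linearly interpolated, else capped at highest concentration. GI50 is the concentration that inhibits growth by half. The concentration for full growth arrest is given as TGI.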

Some test systems named below: TK-10 renal; CCRF-CEM leukemia; RXF 393 renal; A498 renal; UO-31 renal; UACC-257 melanoma; COLO 205 colon; SNB-78 CNS; LXFL 529 NSCLC; DLD-1 colon.
Common to all, as to assay: NCI anticancer screen, dose series, 48 h

For the molecule `O=C1c2cccnc2C(=O)c2nc3cc(N4CCN(C5CC5)CC4)ccc3nc21`, the GI50 with TK-10 renal is 2.19 µM; in the experiment with CCRF-CEM leukemia, 2.56 µM; in the experiment with RXF 393 renal, 0.607 µM; in the experiment with A498 renal, 1.34 µM; in the experiment with UO-31 renal, 0.259 µM; with UACC-257 melanoma it was 0.479 µM. The GI50 in the experiment with COLO 205 colon was 0.558 µM. For the same molecule, the TGI amounted to 7.81 µM in the experiment with TK-10 renal; 9.83 µM with CCRF-CEM leukemia; 2.61 µM in the experiment with RXF 393 renal; 2.91 µM in the experiment on A498 renal; 1.92 µM in the experiment on UO-31 renal; 1.98 µM in the experiment with UACC-257 melanoma. The molecule further gave a TGI with COLO 205 colon of 2.34 µM.
In the case of `CN(C)CCNc1c2c(c(NCCN(C)C)c3[nH]ccc13)C(=O)c1ccccc1C2=O`, the GI50 was 1.57 µM with TK-10 renal; 0.281 µM in the experiment with CCRF-CEM leukemia; 1.5 µM with RXF 393 renal; 11.3 µM with A498 renal; 2.28 µM with UO-31 renal; 4.71 µM in the experiment with UACC-257 melanoma. In the experiment on COLO 205 colon, the GI50 is 4.32 µM. Moreover, the TGI with TK-10 renal is 5.14 µM; in the experiment with RXF 393 renal it was 3.63 µM; in the experiment on A498 renal, 25.1 µM; in the experiment with UO-31 renal, greater than 100 µM; in the experiment on UACC-257 melanoma, 19 µM; in the experiment with COLO 205 colon it was greater than 100 µM.
With `O=C1CC(c2ccc(O)cc2)C2(O1)C(=O)OC(C(O)CO)C2O` (configuration not stated), the TGI in the experiment on TK-10 renal, with CCRF-CEM leukemia, in the experiment with RXF 393 renal, in the experiment with A498 renal, in the experiment on UO-31 renal and in the experiment with UACC-257 melanoma was greater than 100 µM in each case. Besides, in the experiment with COLO 205 colon, the TGI was greater than 100 µM.
Consider `COc1ccc(/C(C#N)=C/c2ccccc2OC)cc1`, for which the GI50 in the experiment on TK-10 renal was 12.4 µM; in the experiment with CCRF-CEM leukemia it was 3.34 µM; with RXF 393 renal it was 5.4 µM; with A498 renal, 5.37 µM; in the experiment with UO-31 renal, 17 µM; in the experiment on UACC-257 melanoma, 12.4 µM. Further, the GI50 with COLO 205 colon is 5.96 µM. Further, the TGI was greater than 100 µM in the experiment on TK-10 renal; 30.3 µM in the experiment with CCRF-CEM leukemia; 27.4 µM in the experiment on RXF 393 renal; greater than 100 µM in the experiment with A498 renal; greater than 100 µM in the experiment on UO-31 renal; greater than 100 µM in the experiment on UACC-257 melanoma. Further, in the experiment on COLO 205 colon, the TGI amounted to 32.4 µM.
For `Cc1ccc(N=Cc2ccc3c(c2)OCO3)cc1C`, the TGI with SNB-78 CNS, in the experiment with TK-10 renal, in the experiment on CCRF-CEM leukemia, in the experiment on RXF 393 renal, in the experiment with LXFL 529 NSCLC and in the experiment on A498 renal was greater than 100 µM throughout. In addition, the TGI with DLD-1 colon, in the experiment with UO-31 renal and with COLO 205 colon was greater than 100 µM in each case.
With `CN(C)CCCNC(CC#N)CCC#N` (configuration not stated), the TGI in the experiment on TK-10 renal, in the experiment with CCRF-CEM leukemia, in the experiment with RXF 393 renal, with A498 renal, in the experiment on UO-31 renal and in the experiment on UACC-257 melanoma was greater than 10 µM throughout. In the experiment with COLO 205 colon, this molecule gave a TGI greater than 10 µM.
`CCOc1ccc(NC(=O)C(=O)CC(=O)C2=C(C)Nc3ccccc3S2)cc1`: the TGI in the experiment on TK-10 renal, in the experiment on CCRF-CEM leukemia, with RXF 393 renal, in the experiment with A498 renal, with DLD-1 colon and in the experiment on UO-31 renal was greater than 50 µM each time. Further, the TGI in the experiment with UACC-257 melanoma and in the experiment with COLO 205 colon was greater than 50 µM in each case.
Consider `CC[C@@H](C(=O)O)C1CC[C@H](C)C([C@@H](C)[C@H](O)[C@H](C)C(=O)[C@H](CC)C2O[C@]3(C=C[C@@H](O)[C@]4(CC[C@@](C)(C5CC[C@](O)(CC)[C@H](C)O5)O4)O3)[C@H](C)C[C@@H]2C)O1` (some centres not stated), for which the GI50 was 0.987 µM with TK-10 renal; 0.619 µM with CCRF-CEM leukemia; 0.289 µM in the experiment on RXF 393 renal; 0.0458 µM in the experiment on A498 renal; 0.784 µM in the experiment on UO-31 renal; 0.293 µM in the experiment with UACC-257 melanoma. Besides, the GI50 in the experiment on COLO 205 colon was 0.224 µM. Moreover, the TGI worked out at 39.4 µM with TK-10 renal; 20.5 µM in the experiment on CCRF-CEM leukemia; 3.76 µM in the experiment with RXF 393 renal; 0.799 µM with A498 renal; 15.9 µM in the experiment on UO-31 renal; 5.88 µM in the experiment with UACC-257 melanoma. The molecule also showed a TGI in the experiment with COLO 205 colon of 5.2 µM.
As to `CC1=C(C)C(=O)c2c(cc3ccccn23)C1=O`, the TGI in the experiment on SNB-78 CNS is 77.5 µM; in the experiment with TK-10 renal it was 55.9 µM; with CCRF-CEM leukemia, greater than 100 µM; with RXF 393 renal it was 27.9 µM; with LXFL 529 NSCLC, 28.6 µM; with A498 renal, 46.1 µM. Also, the TGI in the experiment with UO-31 renal amounted to 65.1 µM; in the experiment on COLO 205 colon it was 34.5 µM.
In the case of `COc1cc(OC(C)=O)cc2c(OC(C)=O)ccc(OC(C)=O)c12`, the TGI in the experiment on SNB-78 CNS, in the experiment with TK-10 renal, with CCRF-CEM leukemia, in the experiment on RXF 393 renal, with LXFL 529 NSCLC and in the experiment on A498 renal was greater than 100 µM each time. Moreover, the TGI in the experiment on UO-31 renal and in the experiment on UACC-257 melanoma was greater than 100 µM each time.
For the molecule `COc1cc(C(=O)C/C(CCCC(=O)Nc2ccccc2[N+](=O)[O-])=N/NC(=O)c2cc3ccccc3cc2O)ccc1O`, the TGI was greater than 100 µM in the experiment on SNB-78 CNS; greater than 100 µM with TK-10 renal; greater than 31.6 µM in the experiment with CCRF-CEM leukemia; greater than 100 µM in the experiment on RXF 393 renal; greater than 100 µM with A498 renal; greater than 95 µM in the experiment on DLD-1 colon. In addition, the TGI in the experiment on UO-31 renal was greater than 100 µM; in the experiment on UACC-257 melanoma it was 82 µM; in the experiment on COLO 205 colon, 63.2 µM.
For the molecule `COc1cccc(-n2ncc3c(N/N=C/c4ccc(C(=O)NCCN(C)C)cc4)ncnc32)c1`, the GI50 was 3.4 µM with TK-10 renal; 4.17 µM in the experiment on CCRF-CEM leukemia; 0.496 µM in the experiment with RXF 393 renal; greater than 13.6 µM in the experiment with A498 renal; 1.64 µM in the experiment on UO-31 renal; 3.72 µM with UACC-257 melanoma. Also, the GI50 with COLO 205 colon was 0.605 µM. Besides, the TGI in the experiment with TK-10 renal was 6.8 µM; in the experiment on CCRF-CEM leukemia it was 11.2 µM; with RXF 393 renal it was 3.53 µM; with A498 renal it was greater than 25 µM; with UO-31 renal it was 5.88 µM; in the experiment with UACC-257 melanoma, 7.44 µM. This molecule also registered a TGI in the experiment with COLO 205 colon of 3.2 µM.
For the molecule `O=C(CN1CCOCC1)Nc1nc(-c2ccc(Cl)cc2)cs1`, the TGI is greater than 100 µM in the experiment with SNB-78 CNS; greater than 100 µM in the experiment on TK-10 renal; 63.9 µM in the experiment on CCRF-CEM leukemia; greater than 100 µM in the experiment on A498 renal; greater than 100 µM in the experiment with DLD-1 colon; 67 µM in the experiment on UO-31 renal. For the same molecule, in the experiment with COLO 205 colon, the TGI amounted to 93 µM.
